SMILES strings stand for the structures.

As usually defined, the melting point is the temperature of the solid-liquid transition. As for `Cl.N[C@@]1(C(=O)OCc2ccccc2C(F)(F)F)CC[C@H]2[C@H](C(=O)O)[C@H]21`, the melting point was > 175 °C (dec.). `Cl.N[C@@]1(C(=O)OCc2ccc(Cl)cc2Cl)CC[C@H]2[C@H](C(=O)O)[C@H]21` [Example 29, (1S,2S,5R,6S)-2-Amino-bicyclo[3.1.0]hexane-2,6-dicarboxylic acid 2-(2′,4′-dichloro)benzyl ester hydrochloride]: the melting point fell in the range of 135 to 137 °C. As to `Cl.N[C@@]1(C(=O)OCc2ccccc2F)CC[C@H]2[C@H](C(=O)O)[C@H]21` [Example 31, (1S,2S,5R,6S)-2-Amino-bicyclo[3.1.0]hexane-2,6-dicarboxylic acid 2-(2′-fluoro)benzyl ester hydrochloride], the melting point is > 220 °C (dec.). For `Cl.N[C@@]1(C(=O)OCc2cc(Cl)ccc2Cl)CC[C@H]2[C@H](C(=O)O)[C@H]21` [Example 33, (1S,2S,5R,6S)-2-Amino-bicyclo[3.1.0]hexane-2,6-dicarboxylic acid 2-(2′,5′-dichloro)benzyl ester hydrochloride] the value was 173 to 175 °C; for `Cl.N[C@@]1(C(=O)OCc2ccccc2Br)CC[C@H]2[C@H](C(=O)O)[C@H]21` [Example 34, (1S,2S,5R,6S)-2-Amino-bicyclo[3.1.0]hexane-2,6-dicarboxylic acid 2-(2′-bromo)benzyl ester hydrochloride], 190 to 191 °C.

Consider `Cl.N[C@@]1(C(=O)OCc2cc(F)cc(F)c2)CC[C@H]2[C@H](C(=O)O)[C@H]21` [Example 35, (1S,2S,5R,6S)-2-Amino-bicyclo[3.1.0]hexane-2,6-dicarboxylic acid 2-(3′,5′-difluoro)benzyl ester hydrochloride], for which the melting point is 98 to 99 °C. Regarding `Cc1ccc(C)c(COC(=O)[C@]2(N)CC[C@H]3[C@H](C(=O)O)[C@H]32)c1.Cl` [Example 41, (1S,2S,5R,6S)-2-Amino-bicyclo[3.1.0]hexane-2,6-dicarboxylic acid 2-(2′,5′-dimethyl)benzyl ester hydrochloride], the melting point is 70 °C (dec.). For `COc1ccccc1COC(=O)[C@]1(N)CC[C@H]2[C@H](C(=O)O)[C@H]21` [Example 48, (1S,2S,5R,6S)-2-Amino-bicyclo[3.1.0]hexane-2,6-dicarboxylic acid 2-(2′-methoxy)benzyl ester], the melting point is 195 °C (dec.). In the case of `N[C@@]1(C(=O)OCc2cccc(F)c2)CC[C@H]2[C@H](C(=O)O)[C@H]21` [Example 54, (1S,2S,5R,6S)-2-Amino-bicyclo[3.1.0]hexane-2,6-dicarboxylic acid 2-(3′-fluoro)benzyl ester], the melting point is 225 °C (dec.).
